According to patent US20210386721A1, “SUBSTITUTED PHENYLPROPENYL PYRIDINE DERIVATIVES, THEIR PREPARATION AND PHARMACEUTICAL APPLICATIONS” (SHANGHAI HAIYAN PHARMACEUTICAL TECHNOLOGY CO., LTD., priority 2019, published 2021):

Key:
[1] = target: T1, PD-1/PD-L1 (Homo sapiens, UniProt Q9NZQ7); assay: PD-1/PD-L1 binding assay (HTRF, PPI-HTRF); conditions: HTRF PD1/PD-L1 binding assay kit; 10 nM Tag1-PD-L1; 25° C.
T1 construct: purchased Cisbio 63ADK000CPDPEB
How it was run: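 HTRF binding assay: compound was mixed with tagged proteins at final concentrations of 10 nM Tag1-PD-L1 and 2 nM PD1 for 15 min at 25 °C. Anti-Tag1-Eu³⁺ and anti-Tag2-XL665 antibodies were then added for 16 h at 25 °C. IC50 was derived from the 665/620 nm emission ratio.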

[2] = test system: Jurkat T(PD1 Luc-)/CHOK1(PDL-1); assay: Jurkat T(PD1 Luc-)/CHOK1(PDL-1) cell experiment (luciferase reporter); assay type: cell-based; conditions: CHO/PD-L1-OKT3 cells co-cultured with Jurkat/PD1-NFAT-Luc cells for 6 hours; Bio-Glo luciferase signal
Method: Assay 2 Jurkat T(PD1 Luc-)/CHOK1(PDL-1) Cell Experiment
G418, Sangon Biotech #A100859-0001, Cat Number G108BA0003, 5 ml of deionized water being added into each bottle, store at 4° C.
CHO/PD-L1-OKT3 cells (constructed by referring to Promega's PD-1/PD-L1 Blockade Bioassays system) cultured in F-12K medium (containing 10% FBS, 800 ug/ml G418, 400 ug/ml D Hygromycin B) were planted into a 96-well plate at 2×10^4 per well, and incubated for 24 hours at 37° C. and 5% CO2. part of the medium was removed, and the test compound dissolved in DMSO with a final concentration of 1 uM was added, and DMSO at the same concentration was added into the control cells. Jurkat/PD1-NFAT-Luc cells (constructed by referring to Promega's PD-1/PD-L1 Blockade Bioassays system) were added at 5×10^5 per well at the same time, and cultured for 6 hours. The corresponding luciferase signal was detected by Bio-Glo™ (Promega, G7940) reagent. The EC50 of each compound to be tested was calculated through the non-linear regression of XLfit software.

T1 sequence (Q9NZQ7 19-238 limits assumed): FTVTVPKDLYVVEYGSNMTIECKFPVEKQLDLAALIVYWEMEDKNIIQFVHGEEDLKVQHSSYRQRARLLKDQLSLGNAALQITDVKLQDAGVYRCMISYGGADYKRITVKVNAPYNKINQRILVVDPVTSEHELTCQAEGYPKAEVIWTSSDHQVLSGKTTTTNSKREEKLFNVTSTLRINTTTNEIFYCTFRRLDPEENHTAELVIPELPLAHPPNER

## COc1cc(/C=C/c2cccc(-c3cccc(NC(=O)c4ccc(CN5CC[C@@H](O)C5)cn4)c3C#N)c2C)c(C(F)(F)F)cc1CN1CC[C@@H](C(=O)O)C1 [Z-105]
[1]
  IC50: 1 nM
[2]
  EC50: 14 nM

## COc1cc(/C=C/c2cccc(-c3cccc(NC(=O)c4ccc(CN5CC[C@@H](O)C5)cn4)c3C)c2C)c(C(F)(F)F)cc1CN1CCCC(C(=O)O)C1 (stereo partly drawn) [Z-106]
[1]
  IC50: 1 nM
[2]
  EC50: 20 nM

## COc1cc(/C=C/c2cccc(-c3cccc(NC(=O)c4ccc(CN5CC[C@@H](O)C5)cn4)c3Cl)c2C)c(C(F)(F)F)cc1CNC[C@@H](O)CC(=O)O [Z-107]
[1]
  IC50: 1 nM
[2]
  EC50: 16 nM

## COc1cc(/C=C/c2cccc(-c3cccc(NC(=O)c4nc5c(n4C)CCN(C)C5)c3Cl)c2C)c(C(F)(F)F)cc1CN1CCCC[C@H]1C(=O)O [Z-108, (S,E)-1-(4-(2-(2′-chloro-3′-(1,5-dimethyl-4,5,6,7-tetrahydro-1H-imidazo[4,5-c]pyridine-2-carboxamido)-2-methyl-[1,1′-biphenyl]-3-yl)vinyl)-2-methoxy-5-(trifluoromethyl)benzyl)piperidine-2-carboxylic Acid]
[1]
  IC50: 2 nM
[2]
  EC50: 57 nM

## COc1cc(/C=C/c2cccc(-c3cccc(NC(=O)c4ccc(CNCCS(C)(=N)=O)cn4)c3C)c2C)c(C(F)(F)F)cc1CN1CC[C@@H](C(=O)O)C1 (stereo partly drawn) [Z-109, (3R)-1-(4-((E)-2-(2,2′-dimethyl-3′-(5-(((2-(S-methylsulfonimidoyl)ethyl)amino)methyl)picolinamido)-[1,1′-biphenyl]-3-yl)vinyl)-2-methoxy-5-(trifluoromethyl)benzyl)pyrrolidine-3-carboxylic Acid]
[1]
  IC50: 1 nM
[2]
  EC50: 121 nM

## COc1cc(/C=C/c2cccc(-c3cccc(NC(=O)c4ccc(CNC[C@@H]5CCC(=O)N5)cn4)c3C)c2C)c(C(F)(F)F)cc1CN1CC[C@@H](C(=O)O)C1 [Z-110, (R)-1-(4-((E)-2-(2,2′-dimethyl-3′-(5-(((((S)-5-oxopyrrolidin-2-yl)methyl)amino)methyl)picolinamido)-[1,1′-biphenyl]-3-yl)vinyl)-2-methoxy-5-(trifluoromethyl)benzyl)pyrrolidine-3-carboxylic Acid]
[1]
  IC50: 1 nM
[2]
  EC50: 153 nM

## COc1cc(C(=O)Nc2cccc(-c3cccc(/C=C/c4cc(OC)c(CN5CCC[C@H]5C(=O)O)cc4C(F)(F)F)c3C)c2C)ncc1CNCCO [Z-112]
[1]
  IC50: 1 nM
[2]
  EC50: 25 nM

## COc1cc(/C=C/c2cccc(-c3cccc(NC(=O)c4nc5c(n4C)CCN(CCO)C5)c3Cl)c2C)c(C(F)(F)F)cc1CN1CCCC[C@H]1C(=O)O [Z-113, (S, E)-1-(4-(2-(2′-chloro-3′-(5-(2-hydroxyethyl)-1-methyl-4,5,6,7-tetrahydro-1H-imidazo [4,5-c]pyridine-2-carboxamido)-2-methyl-[1,1′-biphenyl]-3-yl)vinyl)-2-methoxy-5-(trifluoromethyl)benzyl) piperidine-2-carboxylic Acid]
[1]
  IC50: 1 nM
[2]
  EC50: 66 nM

## COc1cc(C(=O)Nc2cccc(-c3cccc(/C=C/c4cc(OC)c(CN5CC[C@@H](C(=O)O)C5)cc4C(F)(F)F)c3C)c2C)ncc1CN1CC(CO)C1 [Z-114, (R,E)-1-(4-(2-(3′-(5-((3-(hydroxymethyl)azetidin-1-yl)methyl)-4-methoxypicolinamido)-2,2′-dimethyl-[1,1′-biphenyl]-3-yl)vinyl)-2-methoxy-5-(trifluoromethyl)benzyl)pyrrolidine-3-carboxylic Acid]
[1]
  IC50: 1 nM
[2]
  EC50: 54 nM

## COc1cc(C(=O)Nc2cccc(-c3cccc(/C=C/c4cc(OC)c(CN5CCC[C@H]5C(=O)O)cc4C(F)(F)F)c3C)c2C)ncc1CN1CC[C@@H](O)C1 [Z-115]
[1]
  IC50: 1 nM
[2]
  EC50: 31 nM

## COc1cc(C(=O)Nc2cccc(-c3cccc(/C=C/c4cc(OC)c(CN5CC[C@@H](C(=O)O)C5)cc4C(F)(F)F)c3C)c2C)ncc1CN1CC[C@@H](O)C1 [Z-117]
[1]
  IC50: 1 nM
[2]
  EC50: 13 nM

## COc1cc(/C=C/c2cccc(-c3cccc(NC(=O)c4cc(OC)c(CN5CC[C@@H](O)C5)cn4)c3C)c2C)c(C(F)(F)F)cc1CNC[C@@H](O)CC(=O)O [Z-118, (S)-3-hydroxy-4-((4-((E)-2-(3′-(5-(((R)-3-hydroxypyrrolidin-1-yl)methyl)-4-methoxypicolinamido)-2,2′-dimethyl-[1,1′-biphenyl]-3-yl)vinyl)-2-methoxy-5-(trifluoromethyl)benzyl)amino) butanoic Acid]
[1]
  IC50: 1 nM
[2]
  EC50: 13 nM

## COc1cc(/C=C/c2cccc(-c3cccc(NC(=O)c4cc(CN5CC[C@@H](O)C5)ccn4)c3C)c2C)c(C(F)(F)F)cc1CN1CC[C@@H](C(=O)O)C1 [Z-120]
[1]
  IC50: 1 nM
[2]
  EC50: 15 nM

## COc1cc(C(=O)Nc2cccc(-c3cccc(/C=C/c4cc(OC)c(CN5CCC(C)(C(=O)O)C5)cc4C(F)(F)F)c3C)c2C)ncc1CN1CC[C@@H](O)C1 (stereo partly drawn) [Z-121]
[1]
  IC50: 1 nM
[2]
  EC50: 31 nM

## COc1cc(/C=C/c2cccc(-c3cccc(NC(=O)c4cc(OC)c(CN5CC[C@@H](O)C5)cn4)c3C)c2C)c(C(F)(F)F)cc1CN1CCC(C(=O)O)CC1 [Z-122]
[1]
  IC50: 1 nM
[2]
  EC50: 18 nM

## COc1cc(C(=O)Nc2cccc(-c3cccc(/C=C/c4cc(CN5CC[C@@H](C(=O)O)C5)ccc4C(F)(F)F)c3C)c2C)ncc1CN1CC[C@@H](O)C1 [Z-124]
[1]
  IC50: 1 nM
[2]
  EC50: 109 nM

## COC(=O)C[C@H](O)CNCc1cc(C(F)(F)F)c(/C=C/c2cccc(-c3cccc(NC(=O)c4cc(OC)c(CN5CC[C@@H](O)C5)cn4)c3C)c2C)cc1OC [Z-128]
[1]
  IC50: < 1 nM
[2]
  EC50: 39 nM

## COc1cc(/C=C/c2cccc(-c3cccc(NC(=O)c4nc5c(n4C)CCN([C@H]4CC[C@@H](O)CC4)C5)c3C)c2C)c(C(F)(F)F)cc1CN1CC[C@@H](C(=O)O)C1 [Z-131, (R)-1-(4-((E)-2-(3′-(5-((1s,4s)-4-hydroxycyclohexyl)-1-methyl-4,5,6,7-tetrahydro-1H-imidazo[4,5-c]pyridine-2-carboxamido)-2,2′-dimethyl-[1,1′-biphenyl]-3-yl)vinyl)-2-methoxy-5-(trifluoromethyl)benzyl)pyrrolidine-3-carboxylic Acid]
[1]
  IC50: 1 nM
[2]
  EC50: 124 nM

## COc1cc(/C=C/c2cccc(-c3cccc(NC(=O)c4nc5c(n4C)CCN([C@H]4CC[C@H](O)CC4)C5)c3C)c2C)c(C(F)(F)F)cc1CN1CC[C@@H](C(=O)O)C1 [Z-132, (R)-1-(4-((E)-2-(3′-(5-((1r,4r)-4-hydroxycyclohexyl)-1-methyl-4,5,6,7-tetrahydro-1H-imidazo[4,5-c]pyridine-2-carboxamido)-2,2′-dimethyl-[1,1′-biphenyl]-3-yl)vinyl)-2-methoxy-5-(trifluoromethyl)benzyl)pyrrolidine-3-carboxylic Acid]
[1]
  IC50: 1 nM
[2]
  EC50: 168 nM

## COC(=O)[C@@H]1CCN(Cc2cc(C(F)(F)F)c(/C=C/c3cccc(-c4cccc(NC(=O)c5cc(OC)c(CN6CC[C@@H](O)C6)cn5)c4C)c3C)cc2OC)C1 [Z-133]
[1]
  IC50: 2 nM
[2]
  EC50: 31 nM

## COc1cc(/C=C/c2cccc(-c3cccc(NC(=O)c4nc5c(n4C)CCN(C(C)C)C5)c3C)c2C)c(C(F)(F)F)cc1CN1CC[C@@H](C(=O)O)C1 [Z-134, (R,E)-1-(4-(2-(3′-(5-isopropyl-1-methyl-4,5,6,7-tetrahydro-1H-imidazo[4,5-c]pyridine-2-carboxamido)-2,2′-dimethyl-[1,1′-biphenyl]-3-yl)vinyl)-2-methoxy-5-(trifluoromethyl)benzyl)pyrrolidine-3-carboxylic Acid]
[1]
  IC50: 1 nM
[2]
  EC50: 91 nM

## COc1cc(C(=O)Nc2cccc(-c3cccc(/C=C/c4cc(OC)c(CN5CC[C@@H](O)C5)cc4C(F)(F)F)c3C)c2C)ncc1CN1CC[C@@H](O)C1 [Z-135]
[1]
  IC50: ≤ 1 nM
[2]
  EC50: 44 nM

## COc1cc(C(=O)Nc2cccc(-c3cccc(/C=C/c4cc(OC)c(CN5CC[C@@H](C(=O)O)C5)cc4C(F)(F)F)c3Cl)c2C)ncc1CN1CC[C@@H](O)C1 [Z-140]
[1]
  IC50: ≤ 1 nM
[2]
  EC50: 7 nM

## CNc1cc(C(=O)Nc2cccc(-c3cccc(/C=C/c4cc(OC)c(CN5CCC(C(=O)O)C5)cc4C(F)(F)F)c3C)c2C)ncc1CN1CC[C@@H](O)C1 (stereo partly drawn) [Z-141]
[1]
  IC50: ≤ 1 nM
[2]
  EC50: 74 nM
